Measured values reported in ChEMBL document CHEMBL1201862, “PubChem BioAssay data set” (2004).
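A five-concentration, 48-hour dose response in 96-well plates underlies each endpoint, interpolated linearly between surrounding concentrations. Here, GI50 denotes the concentration required for 50% inhibition of growth.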 Activity calls are given as the source filed them. Cut-off read from the data, not from the text of the source: active = GI50 up to about 1.1 µM and inactive = higher.

Legend:
Assay in all cases: NCI-60 cell line screen, 48 h
LOX IMVI = test system: LOX IMVI
T47D = test system: T47D
786-0 = test system: 786-0
HCC 2998 = test system: HCC 2998
RPMI-8226 = test system: RPMI-8226
NCI/ADR-RES = test system: NCI/ADR-RES
SF-268 = test system: SF-268
SK-MEL-2 = test system: SK-MEL-2
HCT-15 = test system: HCT-15
HOP-62 = test system: HOP-62
NCI-H226 = test system: NCI-H226
OVCAR-5 = test system: OVCAR-5
BT-549 = test system: BT-549
SK-OV-3 = test system: SK-OV-3
CCRF-CEM = test system: CCRF-CEM
UACC-62 = test system: UACC-62
NCI-H522 = test system: NCI-H522
MDA-MB-435 = test system: MDA-MB-435
EKVX = test system: EKVX
OVCAR-3 = test system: OVCAR-3

Compound | GI50 (LOX IMVI) | GI50 (T47D) | GI50 (786-0) | GI50 (HCC 2998) | GI50 (RPMI-8226) | GI50 (NCI/ADR-RES) | GI50 (SF-268) | GI50 (SK-MEL-2) | GI50 (HCT-15) | GI50 (HOP-62) | GI50 (NCI-H226) | GI50 (OVCAR-5) | GI50 (BT-549) | GI50 (SK-OV-3) | GI50 (CCRF-CEM) | GI50 (UACC-62) | GI50 (NCI-H522) | GI50 (MDA-MB-435) | GI50 (EKVX) | GI50 (OVCAR-3)
CC1=CC(=O)[C@@H](O)[C@]2(C)[C@H]3[C@@]4(O)OC[C@]35[C@H]([C@@H](C)[C@H]4O)[C@@H](OC(=O)C(C)(C)CO)C(=O)O[C@@H]5C[C@@H]12 | < 0.012 µM (active) | 0.0209 µM (active) | 0.16 µM (active) | 0.0476 µM (active) | 0.0158 µM (active) | 2.32 µM (inactive) | < 0.0379 µM (active) | < 0.0453 µM (active) | 0.292 µM | 0.0989 µM (active) | < 0.0216 µM (active) | 0.701 µM (active) | 0.0428 µM (active) | 4.31 µM (inactive) | 0.0362 µM (active) | 0.0838 µM (active) | < 0.0151 µM (active) | 0.12 µM (active) | 0.741 µM (active) | < 0.0231 µM (active)
COc1cc(NS(C)(=O)=O)ccc1Nc1c2ccccc2nc2ccccc12 [AMSACRINE] | 0.179 µM (active) | 0.441 µM (active) | 0.15 µM (active) | 1.24 µM (inactive) | 0.352 µM (active) | 3.42 µM (inactive) | 0.415 µM (active) | 3.7 µM (inactive) | 0.716 µM | 0.084 µM (active) | 0.125 µM (active) | 1.58 µM (inactive) | 1.04 µM (active) | 0.398 µM (active) | 0.0561 µM (active) | 0.285 µM (active) | 0.668 µM (active) | 4.54 µM (inactive) | 2.08 µM (inactive) | 2.67 µM (inactive)
Cc1nc2c(=O)n(C)c(=O)n(C)c2o1 | > 100 µM (inactive) | > 100 µM (inactive) | > 100 µM (inactive) | > 100 µM (inactive) | > 100 µM (inactive) | > 100 µM (inactive) | > 100 µM (inactive) | > 100 µM (inactive) | > 100 µM | > 100 µM (inactive) | > 100 µM (inactive) | > 100 µM (inactive) | > 100 µM (inactive) | > 100 µM (inactive) | > 100 µM (inactive) | > 100 µM (inactive) | > 100 µM (inactive) | > 100 µM (inactive) | > 100 µM (inactive) | > 100 µM (inactive)
O=C1OC(c2ccc(Cl)cc2)=N/C1=C\c1ccccc1 | > 100 µM (inactive) | > 100 µM (inactive) | > 100 µM (inactive) | > 100 µM (inactive) | 46.6 µM (inactive) | 78 µM (inactive) | > 100 µM (inactive) | > 100 µM (inactive) | > 100 µM | > 100 µM (inactive) | > 100 µM (inactive) | > 100 µM (inactive) | > 100 µM (inactive) | > 100 µM (inactive) | 39.5 µM (inactive) | > 100 µM (inactive) | 49.2 µM (inactive) | > 100 µM (inactive) | > 100 µM (inactive) | 42.3 µM (inactive)
Nc1nc(I)nc2c1ncn2C1OC(COS(N)(=O)=O)C(O)C1O (stereo not given) | < 0.0116 µM (active) | < 0.01 µM (active) | < 0.0106 µM (active) | < 0.0127 µM (active) | 0.0179 µM (active) | < 0.01 µM (active) | < 0.01 µM (active) | < 0.01 µM (active) | 0.0176 µM | 0.0218 µM (active) | < 0.01 µM (active) | < 0.01 µM (active) | < 0.0108 µM (active) | < 0.0166 µM (active) | < 0.01 µM (active) | 0.0226 µM (active) | < 0.01 µM (active) | < 0.01 µM (active) | < 0.0121 µM (active) | < 0.01 µM (active)
COC(=O)c1cc(OC)c(OC)c(OC)c1-c1cc2c(cc1C=O)OCO2 | > 10 µM (inactive) | > 10 µM (inactive) | > 10 µM (inactive) | > 10 µM (inactive) | > 10 µM (inactive) | > 10 µM (inactive) | > 10 µM (inactive) | > 10 µM (inactive) | > 10 µM | > 10 µM (inactive) | > 10 µM (inactive) | > 10 µM (inactive) | > 10 µM (inactive) | > 10 µM (inactive) | > 10 µM (inactive) | > 10 µM (inactive) | > 10 µM (inactive) | > 10 µM (inactive) | > 10 µM (inactive) | > 10 µM (inactive)
COc1ccccc1C1C2=C(COC2=O)OC(C)(C)Oc2cc3c(cc21)OCO3 (stereo not given) | 5.16 µM (inactive) | 5.93 µM (inactive) | 3.83 µM (inactive) | 7.29 µM (inactive) | 4.03 µM (inactive) | 3.18 µM (inactive) | 7.4 µM (inactive) | 4.06 µM (inactive) | 3.23 µM | 4.02 µM (inactive) | 10.3 µM (inactive) | 13.4 µM (inactive) | > 10 µM (inactive) | 4 µM (inactive) | 4.06 µM (inactive) | 3.37 µM (inactive) | 1.99 µM (inactive) | 0.564 µM (active) | 3.56 µM (inactive) | 2.73 µM (inactive)
CO[C@H]1[C@@H](O)[C@H](O[C@@H]2C[C@H]3CC[C@@H]4[C@H](CC[C@]5(C)[C@@H](C6=CC(=O)OC6)CC[C@]45O)[C@@]3(C)[C@H](OC(C)=O)C2)O[C@@H](C)[C@H]1O | 1.52 µM (inactive) | 3.19 µM (inactive) | 1.84 µM (inactive) | 7.18 µM (inactive) | 2.05 µM (inactive) | 1.77 µM (inactive) | 0.646 µM (active) | 2.88 µM (inactive) | 1.92 µM | 0.933 µM (active) | 2.96 µM (inactive) | 2.18 µM (inactive) | 0.637 µM (active) | 2.78 µM (inactive) | 0.65 µM (active) | 2.43 µM (inactive) | 0.574 µM (active) | 3.19 µM (inactive) | 1.29 µM (inactive) | 0.573 µM (active)
C=C1C(=O)OC2/C=C(/C)C(OC(C)=O)C/C=C(\C)C(OC(=O)C3(C)OC3C)C(O)C12 (stereo not given) | 30.8 µM (inactive) | > 100 µM (inactive) | 47.4 µM (inactive) | > 100 µM (inactive) | 43.9 µM (inactive) | > 100 µM (inactive) | > 100 µM (inactive) | > 100 µM (inactive) | 53.3 µM | > 100 µM (inactive) | > 100 µM (inactive) | > 100 µM (inactive) | 65.6 µM (inactive) | > 100 µM (inactive) | 34 µM (inactive) | > 100 µM (inactive) | 14.9 µM (inactive) | > 100 µM (inactive) | > 100 µM (inactive) | > 100 µM (inactive)
COC(=O)C1=C(C=O)C2C=CC1C2 (stereo not given) | > 60.5 µM (inactive) | > 100 µM (inactive) | > 92.3 µM (inactive) | > 89.1 µM (inactive) | 51.1 µM (inactive) | > 100 µM (inactive) | > 83.4 µM (inactive) | > 100 µM (inactive) | 42.1 µM | > 100 µM (inactive) | > 100 µM (inactive) | > 100 µM (inactive) | > 100 µM (inactive) | > 68.7 µM (inactive) | 25.1 µM (inactive) | > 93.1 µM (inactive) | 44.5 µM (inactive) | > 100 µM (inactive) | 98.4 µM (inactive) | 55.8 µM (inactive)
O=C(CC(O)(C(F)(F)F)C(F)(F)F)c1cc(CC(=O)C(O)(C(F)(F)F)C(F)(F)F)cc(CC(=O)C(O)(C(F)(F)F)C(F)(F)F)c1 | 1.14 µM (inactive) | 0.419 µM (active) | 1.79 µM (inactive) | 1.54 µM (inactive) | > 10 µM (inactive) | 1.85 µM (inactive) | 2.67 µM (inactive) | 1.75 µM (inactive) | 0.971 µM | 1.46 µM (inactive) | 3.01 µM (inactive) | 3.01 µM (inactive) | 1.71 µM (inactive) | 2.14 µM (inactive) | > 10 µM (inactive) | 1.11 µM (active) | 1.14 µM (inactive) | 1 µM (active) | 2.24 µM (inactive) | 0.454 µM (active)
O=C(/C=C/c1ccc(Cl)cc1)c1ccccc(=O)c1O | 1.29 µM (inactive) | 4.36 µM (inactive) | 1.18 µM (inactive) | 0.579 µM (active) | 1.07 µM (active) | 0.36 µM (active) | 3.12 µM (inactive) | 1.75 µM (inactive) | 0.341 µM | 2.65 µM (inactive) | 1.41 µM (inactive) | 6.34 µM (inactive) | 2.3 µM (inactive) | 3.56 µM (inactive) | 0.255 µM (active) | 1.14 µM (inactive) | 5.42 µM (inactive) | 0.977 µM (active) | 1.93 µM (inactive) | 3.64 µM (inactive)
COc1ccc2c(c1)-c1nc(=O)n(CCCN(C)C)c3ccc([N+](=O)[O-])c(c13)N2 | 0.838 µM (active) | 15.5 µM (inactive) | 0.466 µM (active) | 1.06 µM (active) | 0.231 µM (active) | 1.88 µM (inactive) | 0.789 µM (active) | 12.2 µM (inactive) | 0.897 µM | 0.675 µM (active) | 3.81 µM (inactive) | 1.15 µM (inactive) | 3.85 µM (inactive) | 1.29 µM (inactive) | 0.117 µM (active) | 8.87 µM (inactive) | 0.368 µM (active) | 2.6 µM (inactive) | 0.711 µM (active) | 2.13 µM (inactive)
CCOC(=O)c1c(O)nc2cccc3c2c1-c1cccnc1S3 | 25.1 µM (inactive) | 9.86 µM (inactive) | 36 µM (inactive) | 50.2 µM (inactive) | 17.5 µM (inactive) | 33.1 µM (inactive) | 28.8 µM (inactive) | 56.1 µM (inactive) | 35.8 µM | 25.5 µM (inactive) | 19.9 µM (inactive) | 24 µM (inactive) | 22.4 µM (inactive) | 30.9 µM (inactive) | 24 µM (inactive) | 16.3 µM (inactive) | 25.8 µM (inactive) | 28.8 µM (inactive) | 30.3 µM (inactive) | 28.6 µM (inactive)
